Patent US8729120B2, “Adjunctive therapy for depression” (SK Biopharmaceuticals Co., Ltd., priority 2004, dated 2014)

Columns and labels:
Format in all cases: in vivo
humans = assay: Placebo controlled study in humans, change in total MADRS (ITT, LOCF); settings: for Change from Baseline in total MADRS, Mean (SD): ITT LOCF, depression rating scale
Mice [1] = assay: Reversal of Isolation-Induced Aggression in Mice
Mice [2] = assay: Forced-Swim Test (FST) in Mice
Mice [3] = assay: Tetrabenazine Reversal in Mice
Mice [4] = assay: Reserpine Reversal in Mice
Rats = assay: Forced-Swim Test (FST) in Rats
Mice [5] = assay: Tail Suspension in Mice

| Compound | Change from Baseline in total MADRS, Mean (SD) (humans; 20 mg) | antidepressant effects (Mice [1]) | antidepressant effects (Mice [2]) | antidepressant effects (Mice [3]) | antidepressant effects (Mice [4]) | antidepressant effects (Rats) | antidepressant effects (Mice [5]) | Change from Baseline in total MADRS, Mean (SD) (humans; 200 mg) | Change from Baseline in total MADRS, Mean (SD) (humans; 400 mg) | decrease in depression rating scores (MADRS) compared to placebo and paroxetine (humans; Table 1) | antidepressant effects in large placebo controlled study (humans; compared with Paroxetine) |
| --- | --- | --- | --- | --- | --- | --- | --- | --- | --- | --- | --- |
| Fc1ccc([C@@H]2CCNC[C@H]2COc2ccc3c(c2)OCO3)cc1 (relative stereo) [Paroxetine, trans-(−)-3-[(1,3-benzodioxol-5-yloxy)methyl]-4-(4-fluorophenyl)piperidine, reference compound] | −14.1 (10.71) | – | – | – | – | – | – | – | – | – | – |
| Cl.NC(=O)OC[C@H](N)Cc1ccccc1 [Test Compound, (R)-(beta-amino-benzenepropyl) carbamate monohydrochloric acid] | – | demonstrated antidepressant effects | demonstrated antidepressant effects | demonstrated antidepressant effects | demonstrated antidepressant effects | demonstrated antidepressant effects | demonstrated antidepressant effects | −12.1 (11.12) | −12.4 (11.12) | greater decrease in depression rating scores (MADRS) as compared to placebo but not as great as the active control, paroxetine | significant antidepressant effects |
